Source: patent US10814019B2, “MRI signal suppression agents, compositions, and methods” (University of Washington, priority 2014, dated 2020)

How the values were obtained:
[1] = mDixon signal intensity of whole venous blood samples containing Ablavar; assay type: physicochemical
Procedure: Six in vitro whole venous blood samples each contained a different concentration (0, 2, 4, 6, 8, and 12 mM) of gadofosveset trisodium (Ablavar). For long echo time pairs (e.g., 11.5 ms/12.7 ms), the signal intensity decreased rapidly with Ablavar concentration greater than about 4 mM.

[2] = in vivo; cited from earlier work

signal intensity relative to pure blood ([1]; 12 mM Ablavar, echo times as short as 6.9 ms/8.1 ms): below that of pure blood
Ablavar concentration above which signal intensity decreased rapidly ([1]; long echo time pairs (e.g., 11.5 ms/12.7 ms)): greater than 4 mM
Compound: O=C([O-])CN(CCN(CC(=O)[O-])CC(COP(=O)([O-])OC1CCC(c2ccccc2)(c2ccccc2)CC1)N(CC(=O)[O-])CC(=O)[O-])CC(=O)[O-].[Gd+3].[Na+].[Na+].[Na+] (stereo not drawn) [Ablavar, gadofosveset trisodium]
half-life [2]: about 30 minutes
